Measured values as given in patent US20250313535A1, “ALPHA 4 BETA 7 INTEGRIN MODULATORS AND USES THEREOF” (DICE MOLECULES SV, INC., priority 2022, published 2025).
Read-outs that look alike come from different tables or passages of the source.

Key:
α4β7 integrin = α4β7 integrin (Homo sapiens (Human), UniProt P13612+P26010); test: Integrin Adhesion Assay: Protocol 4 (MAdCAM-coated plate, RPMI-8866 cells with stable LOF mutation of the ITGB1 gene); format: cell-based
Procedure: (§1) Integrin Adhesion Assay Using Genetically Modified Cells Generating Stable Cell Lines with ITGB1 or ITGB7 Knockout (Protocol 4 and Protocol 5)
(§2) To obtain subclones of the RPMI-8866 cell line (Sigma-Aldrich, St. Louis, MO) that were individually deficient in either integrin β1 or integrin β 7, CRISPR/Cas9 technology was employed (PMID: 30108345). Specifically, a Neon™ Transfection System System 10 μL Kit and the Neon™ Transfection device (both from ThermoFisher Scientific) were used.
(§3) The protocol was performed following the manufacturer instructions, described in https://www.thermofisher.com/document-connect/document-connect.html?url=https % 3A%2F%2F assets.thermofisher.com%2FTFS-Assets%2FLSG%2Fmanuals%2FMAN0017066_TrueCut Cas9_Protein_v2_UG.pdf, which is incorporated by reference herein in its entirety.
(§4) RPMI-8866 cells were transferred to a flask the day before transfection, at a confluence of 5×10^5 cells/mL. The cells were washed with PBS and resuspended in buffer R (Neon™ Transfection System, Invitrogen) to 2×10^5 cells/10 uL for each reaction. The TrueCut™ HiFi Cas9 Protein (1250 ng per reaction) was mixed with TrueGuide™ sgRNA (7.5 pmoles each/pool of 3 sequences, table 1) (ThermoFisher Scientific). This mix was combined with the RPMI-8866 cells and electroporated on the Neon system at 1700V/20 ms/1 pulse. Transfected cells were allowed to recover in 500 μL pre-warmed cRMPI media (RPMI-1640 media with 10% FBS, 100 U/ml Penicillin-Streptomycin) at 37° C., 5% CO2 for 24 hours. At that time, an extra 500 μL of pre-warmed cRMPI media was added, and cells were incubated for another 24 hours.
(§5) For flow cytometry analysis, 100 μL of the transfected cells were collected and stained with anti-itga4 (Clone: 9F10, PE, BD Pharmingen™), anti-itgb 1 (Clone: (TS2/16), Super Bright 436, eBioscience), anti-itgb7 (Clone: FIB504, Brilliant Violet 650, BD Pharmingen™) and viability dye (LIVE/DEAD™ Fixable Green Dead Cell Stain, Invitrogen™). An Attune NxT Flow Cytometer was used to analyze the CRISPR-transfected cells. The flow cytometry results were analyzed using FlowJo™ v10.8.1 Software (BD Life Sciences). Fluorescence minus one (FMO) controls were used to select appropriate gates for data analysis.
(§6) To generate an individual clones of cells deficient in either ITGB7 or ITGB1 by limiting dilution assay, the transfected cells were resuspended at 5 cells/mL and seeded in 384 well plates. Outgrowth of clones was monitored using a microscope, and 24 clones were transferred for expansion. Expression of either integrin was verified by flow cytometry in each of the clones. One clone of each integrin b7 or the integrin b1 knockout was chosen, expanded and aliquots were frozen in vapor phase liquid nitrogen.
Integrin Adhesion Assay: Protocol 4
(§7) MAdCAM (R&D Systems, 0.1 ug) was diluted in 50 μL PBS, added to each well of an opaque ELISA plate (Thermo), and incubated overnight at 4° C. Coated plates were washed once with PBS and then blocked with 200 μL of assay buffer (10 mM HEPES, 150 mM NaCl, 1 mM MnCl2, 0.1 mM CaCl2), 1% BSA) for 1 hour at 37° C. and 5% CO2. After incubation, buffer was aspirated from the plates and 50 μL of fresh assay buffer was added. Compounds were added using a compounds dispenser (Tecan), and DMSO concentration was normalized to 1% across each plate. 50 μL of RPMI-8866 cells with a stable loss of function (LOF) mutation of the ITGB1 gene (2×10^6 per mL) were added to each well and the plates were incubated for 1 hour at 37° C. at a CO2 concentration of 5%. After incubation, plates were allowed to cool to RT for 10 minutes before being washed four times in assay buffer by an automated plate washer (BioTek). After washing, 100 μL of a 1:1 mixture of assay buffer and CellTiter GLO 2.0 reagent (Promega) were added to each well. Plates were mixed for 2 minutes at 1000 rpm and then allowed to incubate an additional 10 minutes before reading out luminescence on a Tecan Spark plate reader. […]

α4β1 integrin = α4β1 integrin (Homo sapiens (Human), UniProt P05556+P13612); test: Integrin Adhesion Assay: Protocol 5 (VCAM-coated plate, RPMI-8866 cells with stable LOF mutation of the ITGB7 gene); format: cell-based; settings: RPMI-8866 cells with stable LOF mutation of the ITGB7 gene; read-out: Mean IC50 α4β1 KO^b
α4β1 integrin, sequence (P13612 34-1032): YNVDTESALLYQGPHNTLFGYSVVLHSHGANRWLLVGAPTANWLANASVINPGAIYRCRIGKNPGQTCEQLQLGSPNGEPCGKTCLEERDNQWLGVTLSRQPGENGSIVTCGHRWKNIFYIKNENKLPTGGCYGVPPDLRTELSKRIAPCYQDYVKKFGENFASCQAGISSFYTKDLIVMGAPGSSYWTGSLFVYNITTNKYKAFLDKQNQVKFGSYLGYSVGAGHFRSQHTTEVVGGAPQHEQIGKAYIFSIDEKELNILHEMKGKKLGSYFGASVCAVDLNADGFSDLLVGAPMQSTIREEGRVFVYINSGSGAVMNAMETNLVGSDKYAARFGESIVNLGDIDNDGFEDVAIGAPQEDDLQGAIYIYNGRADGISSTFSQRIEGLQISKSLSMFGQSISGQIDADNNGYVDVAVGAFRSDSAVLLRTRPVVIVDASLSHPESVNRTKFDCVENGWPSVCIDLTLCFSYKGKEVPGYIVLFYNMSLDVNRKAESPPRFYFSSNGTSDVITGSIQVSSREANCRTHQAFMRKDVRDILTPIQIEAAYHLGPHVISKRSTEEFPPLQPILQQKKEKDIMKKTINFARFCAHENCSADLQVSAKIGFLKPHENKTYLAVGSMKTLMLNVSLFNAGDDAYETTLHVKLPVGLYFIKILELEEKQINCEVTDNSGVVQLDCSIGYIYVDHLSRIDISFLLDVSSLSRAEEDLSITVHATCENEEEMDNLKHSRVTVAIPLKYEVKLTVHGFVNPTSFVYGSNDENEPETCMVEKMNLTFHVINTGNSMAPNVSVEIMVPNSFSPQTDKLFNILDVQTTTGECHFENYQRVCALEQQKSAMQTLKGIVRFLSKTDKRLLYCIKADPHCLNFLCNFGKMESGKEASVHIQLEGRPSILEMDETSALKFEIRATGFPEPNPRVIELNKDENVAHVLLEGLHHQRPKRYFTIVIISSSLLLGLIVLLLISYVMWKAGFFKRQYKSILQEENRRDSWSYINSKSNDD
α4β1 integrin, sequence (P05556 21-798): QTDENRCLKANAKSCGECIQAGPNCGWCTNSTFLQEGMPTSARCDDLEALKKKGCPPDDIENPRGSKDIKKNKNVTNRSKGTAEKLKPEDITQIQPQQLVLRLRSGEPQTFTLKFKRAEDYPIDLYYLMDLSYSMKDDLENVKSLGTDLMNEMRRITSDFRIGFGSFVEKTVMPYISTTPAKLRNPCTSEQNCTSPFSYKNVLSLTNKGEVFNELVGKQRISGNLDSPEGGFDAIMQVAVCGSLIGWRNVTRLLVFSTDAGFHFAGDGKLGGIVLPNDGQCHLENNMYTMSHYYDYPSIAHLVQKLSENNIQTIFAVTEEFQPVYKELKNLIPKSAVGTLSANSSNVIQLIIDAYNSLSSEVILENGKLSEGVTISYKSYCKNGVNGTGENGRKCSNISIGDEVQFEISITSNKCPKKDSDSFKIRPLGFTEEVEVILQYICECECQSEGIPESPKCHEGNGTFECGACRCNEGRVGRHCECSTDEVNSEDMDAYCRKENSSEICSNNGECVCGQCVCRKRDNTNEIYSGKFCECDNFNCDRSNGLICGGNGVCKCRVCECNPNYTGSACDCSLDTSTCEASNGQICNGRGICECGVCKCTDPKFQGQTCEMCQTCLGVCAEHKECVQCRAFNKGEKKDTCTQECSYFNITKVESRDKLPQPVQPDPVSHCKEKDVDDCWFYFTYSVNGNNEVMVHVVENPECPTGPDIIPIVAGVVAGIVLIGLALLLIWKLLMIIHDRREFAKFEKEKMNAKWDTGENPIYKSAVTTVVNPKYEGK
Procedure: as §1, §2, §3, §4, §5, §6
Integrin Adhesion Assay: Protocol 5
as §7, with “VCAM” for “MAdCAM”, “by” for “using a”, “(Tecan)” for “(Tecan),”, “LOF” for “loss of function (LOF)”, “ITGB7” for “ITGB1”, “and 5% CO2.” for “at a CO2 concentration of 5%.”

[1] = RPMI-8866 cells with stable LOF mutation of the ITGB1 gene, read-out: Mean IC50 α4β7 KO^a
[2] = Protocol 4, RPMI-8866 cells with LOF mutation of ITGB1, MAdCAM, read-out: Mean IC50 α4β7 KO

α4β7 integrin, sequence (P13612 34-1032): as the sequence (P13612 34-1032) above
α4β7 integrin, sequence (P26010 20-798): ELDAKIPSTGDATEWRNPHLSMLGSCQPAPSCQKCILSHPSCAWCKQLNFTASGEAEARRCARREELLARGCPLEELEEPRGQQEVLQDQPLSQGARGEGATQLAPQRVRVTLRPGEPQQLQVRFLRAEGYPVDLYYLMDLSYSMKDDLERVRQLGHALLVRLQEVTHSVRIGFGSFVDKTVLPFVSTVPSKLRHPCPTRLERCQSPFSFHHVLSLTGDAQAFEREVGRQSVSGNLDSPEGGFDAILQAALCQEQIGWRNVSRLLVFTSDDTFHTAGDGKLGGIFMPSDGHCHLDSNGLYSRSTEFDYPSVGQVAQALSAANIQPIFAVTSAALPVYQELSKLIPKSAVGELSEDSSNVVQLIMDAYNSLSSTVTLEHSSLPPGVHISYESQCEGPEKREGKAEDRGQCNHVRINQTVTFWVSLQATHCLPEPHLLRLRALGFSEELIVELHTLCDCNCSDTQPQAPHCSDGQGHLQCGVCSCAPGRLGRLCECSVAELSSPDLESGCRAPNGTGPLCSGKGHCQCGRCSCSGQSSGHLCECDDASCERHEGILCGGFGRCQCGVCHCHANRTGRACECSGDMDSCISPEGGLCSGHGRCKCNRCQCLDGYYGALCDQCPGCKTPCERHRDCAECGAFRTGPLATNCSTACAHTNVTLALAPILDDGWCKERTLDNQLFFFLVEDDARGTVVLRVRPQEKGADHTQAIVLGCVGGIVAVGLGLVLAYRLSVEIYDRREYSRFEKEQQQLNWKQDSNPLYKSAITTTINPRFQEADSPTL

SMILES	IC50 (α4β7 integrin; [1]) [nM]	IC50 (α4β1 integrin) [nM]	IC50 (α4β7 integrin; [2]) [nM]
Cn1c(=O)c(-c2cccc3c(C[C@H](NC(=O)C4(C(F)(F)F)CCN(CC(F)F)CC4)C(=O)O)cccc23)c(C(F)(F)F)c2ccccc21 (racemic) [Compound 480]	< 10	100 to 1000	
Cn1c(=O)c(-c2cccc3c(C[C@H](NC(=O)C4(C(F)(F)F)CCN([C@H]5CCC(F)(F)C5)CC4)C(=O)O)cccc23)c(C(F)(F)F)c2ccccc21 (single isomer, unassigned) [Compound 495]	10 to 100	> 1000	
COc1ccc(CN2CCC(F)(F)CC2)c(OC)c1-c1cccc2c(C[C@H](NC(=O)C3(C(F)(F)F)CCN(C4COCC4(F)F)CC3)C(=O)O)cccc12 (single isomer, unassigned) [Compound 639]	< 10	100 to 1000	
COc1ccc(CN2CCC(F)(F)CC2)c(OC)c1-c1cccc2c(C[C@H](NC(=O)C3(C(F)(F)F)CCN(C4COCC4(F)F)CC3)C(=O)O)cccc12 (single isomer, unassigned) [Compound 640]	10 to 100	> 1000	
CN(C)Cc1cccc2c(-c3cccc4c(C[C@H](NC(=O)C5(C(F)(F)F)CCN(CC(F)(F)F)CC5)C(=O)O)cccc34)nccc12 [Compound 421]	< 10	> 1000	
CCOCc1cc(OC)c(-c2cccc3c(C[C@H](NC(=O)C4(C(F)(F)F)CCN(CC(F)(F)F)CC4)C(=O)O)cccc23)c(OC)c1 [Compound 430]	< 10	100 to 1000	
Cn1c(=O)c(-c2cccc3c(C[C@H](NC(=O)C4(C(F)(F)F)CCN(C5COC5)CC4)C(=O)O)cccc23)c(C(F)(F)F)c2ccccc21 [Compound 432]	< 10	10 to 100	
Cc1cccc(F)c1C(=O)N[C@@H](Cc1cccc2c(-c3c(C(F)(F)F)c4cc(CN(C)C)ccc4n(C)c3=O)cccc12)C(=O)O [Compound 451]	< 10	100 to 1000	
Cc1cc(C(F)(F)F)c(-c2cccc3c(C[C@H](NC(=O)C4(C(F)(F)F)CCN(CC(F)(F)F)CC4)C(=O)O)cccc23)c(=O)n1C [Compound 453]	< 10	100 to 1000	
COc1ccc(CN(C)C)c(OC)c1-c1cccc2c(C[C@H](NC(=O)C3(C(F)(F)F)CCN(CC(F)(F)F)CC3)C(=O)O)cccc12 [Compound 455]	< 10	100 to 1000	
O=C(O)[C@H](Cc1cccc2c(-c3nccc4ccc(CCCN5CCC6(CC5)CC6)cc34)cccc12)NC(=O)C1(C(F)(F)F)CCN(CC(F)(F)F)CC1 [Compound 743]			< 10
O=C(O)[C@H](Cc1cccc2c(-c3nccc4ccc(CCCN5CC6(CCC6)C5)cc34)cccc12)NC(=O)C1(C(F)(F)F)CCN(CC(F)(F)F)CC1 [Compound 745]			< 10
Cc1c(CN2CCCCC2)ccnc1-c1cccc2c(C[C@H](NC(=O)C3(C(F)(F)F)CCN(CC(F)(F)F)CC3)C(=O)O)cccc12 [Compound 747]			10 to 100
CN1CCc2nc(-c3cccc4c(C[C@H](NC(=O)C5(C(F)(F)F)CCN(CC(F)(F)F)CC5)C(=O)O)cccc34)ccc2C1 [Compound 755]			< 10
Cc1cc(C2CCCN(C)C2)cnc1-c1cccc2c(C[C@H](NC(=O)C3(C(F)(F)F)CCN(CC(F)(F)F)CC3)C(=O)O)cccc12 (some centres unmarked) [Compound 760]			< 10
O=C(O)[C@H](Cc1cccc2c(-c3nccc4ccc(CCCN5CCC6(CC5)CC6)cc34)cccc12)NC(=O)C1(C(F)(F)F)CCN(CC(F)F)CC1 [Compound 774]			< 10

SMILES	IC50 (α4β7 integrin; [1]) [nM]	IC50 (α4β1 integrin) [nM]	IC50 (α4β7 integrin; [2]) [nM]
O=C(O)[C@H](Cc1cccc2c(-c3ncc(CN4CC(F)C4)c4ccccc34)cccc12)NC(=O)C1(C(F)(F)F)CCN(CC(F)F)CC1 [Compound 877]			< 10
COc1cc(CN2CCC(C(F)(F)F)CC2)cnc1-c1cccc2c(C[C@H](NC(=O)C3(C(F)(F)F)CCN(CC(F)(F)F)CC3)C(=O)O)cccc12 [Compound 889]			< 10
O=C(O)[C@H](Cc1cccc2c(-c3ncc(CN4CCCCC4)cc3C(F)(F)F)cccc12)NC(=O)C1(C(F)(F)F)CCN(CC(F)F)CC1 [Compound 897]			< 10
Cc1cc(CN2CCN(C3CC3)CC2)cnc1-c1cccc2c(C[C@H](NC(=O)C3(C(F)(F)F)CCN(CC(F)F)CC3)C(=O)O)cccc12 [Compound 899]			< 10
O=C(O)[C@H](Cc1cccc2c(-c3ncc(CN4CCC(F)(F)CC4)c4ccccc34)cccc12)NC(=O)C1(C(F)(F)F)CCN(CC(F)F)CC1 [Compound 906]			< 10
COC1CN(Cc2cnc(-c3cccc4c(C[C@H](NC(=O)C5(C(F)(F)F)CCN(CC(F)F)CC5)C(=O)O)cccc34)c3ccccc23)C1 [Compound 913]			< 10
COc1ccc(CN2CCCCC2)cc1-c1cccc2c(C[C@H](NC(=O)C3(C(F)(F)F)CCN(CC(F)F)CC3)C(=O)O)cccc12 [Compound 937]			< 10
COc1ccc(CN2CCC(C(F)(F)F)CC2)cc1-c1cccc2c(C[C@H](NC(=O)C3(C(F)(F)F)CCN(CC(F)F)CC3)C(=O)O)cccc12 [Compound 938]			< 10
COc1ccc(CN2CCC(C)(C)CC2)cc1-c1cccc2c(C[C@H](NC(=O)C3(C(F)(F)F)CCN(CC(F)(F)F)CC3)C(=O)O)cccc12 [Compound 941]			< 10
C[C@@H]1CN(CCc2cnc(-c3cccc4c(C[C@H](NC(=O)C5(C(F)(F)F)CCN(CC(F)(F)F)CC5)C(=O)O)cccc34)c3ccccc23)C[C@H](C)O1 [Compound 979]			< 10
COc1c(CN(C)C)ccc(C)c1-c1cccc2c(C[C@H](NC(=O)c3c(C)cccc3F)C(=O)O)cccc12 [Compound 1010]			< 10
COc1c(CN2CCCCC2)ccc(C(F)(F)F)c1-c1cccc2c(C[C@H](NC(=O)c3c(C)cccc3F)C(=O)O)cccc12 [Compound 1022]			10 to 100
Cn1c(=O)c(-c2cccc3c(C[C@H](NC(=O)C4(C)C[C@H]5CN(CC(F)(F)F)C[C@H]5C4)C(=O)O)cccc23)c(C(F)(F)F)c2ccccc21 (some centres unmarked) [Compound 1047]			100 to 1000
Cn1c(=O)c(-c2cccc3c(C[C@H](NC(=O)C4(C)C5CC4CN(CC(F)(F)F)C5)C(=O)O)cccc23)c(C(F)(F)F)c2ccccc21 (some centres unmarked) [Compound 1048]			100 to 1000
O=C(O)[C@H](Cc1cccc2c(-n3cccc(C(F)(F)F)c3=O)cccc12)NC(=O)C1(C(F)(F)F)CCN(CC(F)(F)F)CC1 [Compound 1055]			100 to 1000
